The text below walks through data of patent US6696268B1, “Production and use of antimicrobial agents” (Pantherix, Ltd., priority 1998, dated 2004).

Assay [1] relates to dihydrofolate reductase (DHFR). The following applies: bacterial vs mammalian DHFR; competes with substrate dihydrofolate; cited from earlier work.
The target of the next assay is T1, E. coli PPAT (Escherichia coli, UniProt P0A6I6).
T1 construct: made in house; host or cells: E. coli (plasmid pUC/PPAT, pUC19 backbone)
The assay can be described thus: Assay for inhibitors of E. coli PPAT (pyrophosphate-dependent cleavage of dephosphocoenzyme A, coupled spectrophotometric assay at 340 nm). The following applies: test compound at 0.05 mM, 25° C., compared with control without inhibitor. The assay is classed as biochemical. How it is done: The activity of the PPAT enzyme was assayed by monitoring the pyrophosphate dependent cleavage of dephosphocoenzyme A which produced ATP and phosphopantetheine. The reaction contains in a final volume of 1 ml: 50 mM Tris-HCl containing 2 mM tetrasodium pyrophosphate, pH 8.0; 1 mM dithiothreitol; 1 mM NADP; 2 mM MgCl2; 5 mM glucose; 9 μg yeast hexokinase; and 7 μg yeast glucose 6-phosphate dehydrogenase. Reactions were monitored spectrophotometrically at 25° C. by following the increase in absorbance at 340 nm.
Inhibition studies were carried out using the reaction conditions described above. Test compounds were added to a final concentration of 0.05 mM, and the percentage inhibition determined by comparison with a control in which no test inhibitor is present.

SMILES strings stand for the structures.

One may read the inhibition as the drop in the measured response relative to a control, in per cent. Higher therefore signals a response far below the control.

T1 sequence (P0A6I6 whole entry): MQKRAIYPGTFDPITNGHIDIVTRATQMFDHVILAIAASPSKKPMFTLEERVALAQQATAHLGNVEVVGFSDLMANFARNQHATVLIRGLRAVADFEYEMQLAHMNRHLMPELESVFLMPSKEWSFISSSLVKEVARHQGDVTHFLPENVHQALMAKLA

Consider `COc1cc(Cc2cnc(N)nc2N)cc(OC)c1OC` [trimethoprim], for which the “bound more tightly by bacterial than mammalian forms of DHFR” value in assay [1] is listed as 50,000 fold. Turning to `O=C1CC(=O)c2ccc3c4c(ccc1c24)C(=O)CC3=O` [1,2,3,6,7,8-hexahydropyrene-1,3,6,8-tetraone], the inhibition at 50 µM against E. coli PPAT is around 60%.
